According to patent US20230023285A1, “PHARMACEUTICAL COMPOSITION FOR USE IN PREVENTING OR STOPPING METASTASES” (LOGICK ENERGETICS B.V., priority 2019, published 2023):

Tests used:
[1] = tested on: Adiponectin; test: Adiponectin gene expression by qPCR in MTΔECad cells; format: cell-based, mouse; settings: qPCR normalized to GAPDH
Description: (§1) For the stimulation of MTΔECad cells the following concentrations were used: PPS (5 μg/ml), Indomethacin (50 μM), en Pioglitazone (10 μM).
(§2) Untreated cell lines were employed as negative controls. As read-outs of adipogenesis, several approaches were tested: • 1. Oil red O staining by histochemistry. • 2. Nile Red staining by immuno-fluorescence (IF) • 3. RTqPCR (gene expression analysis) • Adiponectin (adipocyte marker) • EpCam (marker for epithelial cells) FIGS. 15a-d show stimulation schemes; FIGS. 15a-b according to prior art, and FIGS. 15c-15d according to the present invention.
(§3) Inventors studied the effect of treatment of MTΔECad cells with the different compounds and combinations on EpCAM expression as a marker for epithelial cells and Adiponectin expression as a marker for adipocytes.
(§4) Steps performed when measuring gene expression using real-time PCR.
(§5) RNA was first isolated and characterized for quantity and integrity. During a two-step reaction, cDNA was first synthesized and then used as a PCR template. The housekeeping gene GAPDH was used for normalizing the results. A normalization factor has been used for calculating each individual sample. Dividing the fluorescent data by its normalization factor produced the normalized data, which was followed by statistical analysis.

[2] = tested on: EpCAM; test: EpCAM gene expression by qPCR in MTΔECad cells; format: cell-based, mouse; settings: qPCR normalized to GAPDH
Description: as §1, §2, §3, §4, §5

Compound: COc1ccc2c(c1)c(CC(=O)O)c(C)n2C(=O)c1ccc(Cl)cc1 [Indomethacin]
- adiponectin gene expression [1]: obviously stimulated adiponectin gene expression
- EpCAM gene expression [2]: clearly stimulated EpCAM expression

Compound: Pentosan polysulphate [PPS]
- adiponectin gene expression [1]: no effect
- EpCAM gene expression [2]: no significant effect
